Measured values: US8691800B2, “Quinoline derivatives as antibacterial agents” (Janssen Pharmaceutica N.V., priority 2005, dated 2014)
≈ marks a conversion by molar mass, not a printed value. Blank lines part the entries; values can stand above or below the compound they belong to.

Columns and labels:
[1] = system: Staphylococcus aureus (ATCC25923); assay: Microtitre plate assay, IC90 for bacterial growth; assay type: cell-based; details: 90% inhibitory concentration for bacterial growth
Experimental: (§1) The bacteria used in this study were grown overnight in flasks containing 100 ml Mueller-Hinton Broth (Becton Dickinson—cat. no. 275730) in sterile de-ionized water, with shaking, at 37° C. Stocks (0.5 ml/tube) were stored at 70° C. until use. Bacteria titrations were performed in microtiter plates and colony forming units (CFUs) were determined. In general, an inoculum level of approximately 100 CFUs was used for susceptibility testing.
(§2) Anti bacterial Susceptibility Testing: IC90 Determination
(§3) Flat-bottom, sterile 96-well plastic microtiter plates were filled with 180 μl of sterile deionized water, supplemented with 0.25% BSA. Subsequently, stock solutions (7.8× final test concentration) of compounds were added in 45 μl volumes in column 2. Serial five-fold dilutions (45 μl in 180 μl) were made directly in the microtiter plates from column 2 to reach column 11. Untreated control samples with (column 1) and without (column 12) inoculum were included in each microtiter plate. Depending on the bacteria type, approximately 10 to 60 CFU per well of bacteria inoculum (100 TCID50), in a volume of 100 μl in 2.8× Mueller-Hinton broth medium, was added to the rows A to H, except column 12. The same volume of broth medium without inoculum was added to column 12 in row A to H. The cultures were incubated at 37° C. for 24 hours under a normal atmosphere (incubator with open air valve and continuous ventilation). At the end of incubation, one day after inoculation, the bacterial growth was quantitated fluorometrically. Therefore resazurin (0.6 mg/ml) was added in a volume of 20 μl to all wells 3 hours after inoculation, and the plates were re-incubated overnight. A change in colour from blue to pink indicated the growth of bacteria. The fluorescence was read in a computer-controlled fluorometer (Cytofluor Biosearch) at an excitation wavelength of 530 nm and an emission wavelength of 590 nm. The % growth inhibition achieved by the compounds was calculated according to standard methods. The IC90 (expressed in μg/ml) was defined as the 90% inhibitory concentration for bacterial growth.

[2] = system: Bacillus subtilis (ATCC43639); assay: Microtitre plate assay, IC90 for bacterial growth; assay type: cell-based; details: 90% inhibitory concentration for bacterial growth
Experimental: as §1, §2, §3

[3] = system: methicilline resistant Staphylococcus aureus (MRSA) (a clinical isolate from the University of Antwerp); assay: Microtitre plate assay, IC90 for bacterial growth; assay type: cell-based; details: 90% inhibitory concentration for bacterial growth; for IC90: Staphylococcus aureus, MRSA, read-out: IC90 STA RMETHIC
Experimental: as §1, §2, §3

[4] = system: Streptococcus mutans (ATCC33402); assay: Microtitre plate assay, IC90 for bacterial growth; assay type: cell-based; details: for IC90 SMU 33402: 90% inhibitory concentration for bacterial growth
Experimental: as §1, §2, §3

[5] = system: Listeria monocytogenes (ATCC49594); assay: Microtitre plate assay, IC90 for bacterial growth; assay type: cell-based; details: for IC90 LMO 49594: 90% inhibitory concentration for bacterial growth
Experimental: as §1, §2, §3

[6] = system: Pseudomonas aeruginosa (ATCC27853); assay: Microtitre plate assay, IC90 for bacterial growth; assay type: cell-based; details: for IC90 PAE 27853: 90% inhibitory concentration for bacterial growth; for IC90: Pseudomonas aeruginosa, ATCC27853, 90% inhibitory concentration for bacterial growth, read-out: IC90 PAE 27853
Experimental: as §1, §2, §3

[7] = system: Streptococcus pneumoniae (ATCC6305); assay: Microtitre plate assay, IC90 for bacterial growth; assay type: cell-based; details: for IC90 SPN 6305: 90% inhibitory concentration for bacterial growth; for IC90: Streptococcus pneumoniae, ATCC6305, 90% inhibitory concentration for bacterial growth, read-out: IC90 SPN 6305
Experimental: as §1, §2, §3

[8] = system: Streptococcus pyogens (ATCC8668); assay: Microtitre plate assay, IC90 for bacterial growth; assay type: cell-based; details: for IC90 SPY 8668: 90% inhibitory concentration for bacterial growth; for IC90: Streptococcus, ATCC8668, 90% inhibitory concentration for bacterial growth, read-out: IC90 SPY 8668
Experimental: as §1, §2, §3

[9] = system: Staphylococcus aureus (ATCC29213); assay: Microtitre plate assay, IC90 for bacterial growth; assay type: cell-based; details: 90% inhibitory concentration for bacterial growth, 24 hours at 37° C., resazurin; for IC90: Staphylococcus aureus, ATCC29213, 24 h, read-out: IC90 STA 29213
Experimental: as §1, §2, §3

[10] = system: Enterococcus faecalis (ATCC29212); assay: Microtitre plate assay, IC90 for bacterial growth; assay type: cell-based; details: for IC90 EFA 29212: 90% inhibitory concentration for bacterial growth; for IC90: Enterococcus faecalis, ATCC29212, 90% inhibitory concentration for bacterial growth, read-out: IC90 EFA 29212
Experimental: as §1, §2, §3

SMILES: COc1nc2ccc(Br)cc2cc1C(c1ccccc1)C1(c2cccc3ccccc23)CC[N+](C)(C)CO1.[I-] (single isomer, unassigned) [Compound 17]
IC90 STA RMETHIC [3]: 2.3 µg/mL
IC90 PAE 27853 [6]: 2.0 µg/mL
IC90 SPN 6305 [7]: 1.8 µg/mL
IC90 SPY 8668 [8]: 1.8 µg/mL
IC90 STA 29213 [9]: 1.8 µg/mL
IC90 EFA 29212 [10]: 1.8 µg/mL
melting point: 245 °C

SMILES: COc1nc2ccc(Br)cc2cc1C(c1ccccc1)C1(c2cccc3ccccc23)CC[N+](C)(C)CO1.[I-] (single isomer, unassigned) [Compound 18]
IC90 [3]: 2.3 µg/mL
IC90 [6]: 2 µg/mL
IC90 [7]: 1.8 µg/mL
IC90 [8]: 1.8 µg/mL
IC90 [9]: 2.3 µg/mL
IC90 [10]: 1.8 µg/mL
melting point: 228 °C

SMILES: CC[N+]1(C)CCC(c2cccc3ccccc23)(C(c2ccccc2)c2cc3cc(Br)ccc3nc2OC)OC1.[I-] (single isomer, unassigned) [Compound 19]
IC90 [3]: 2.3 µg/mL
IC90 [6]: 3.7 µg/mL
IC90 SPN 6305 [7]: 0.5 µg/mL
IC90 [8]: 1.8 µg/mL
IC90 [9]: 0.4 µg/mL
IC90 [10]: 1.8 µg/mL
melting point: 236 °C

SMILES: CC[N+]1(C)CCC(c2cccc3ccccc23)(C(c2ccccc2)c2cc3cc(Br)ccc3nc2OC)OC1.[I-] (single isomer, unassigned) [Compound 20]
IC90 STA RMETHIC [3]: 2.3 µg/mL
IC90 PAE 27853 [6]: 4.6 µg/mL
IC90 SPN 6305 [7]: 1.8 µg/mL
IC90 SPY 8668 [8]: 2.1 µg/mL
IC90 STA 29213 [9]: 0.5 µg/mL
IC90 EFA 29212 [10]: 1.8 µg/mL
melting point: 215 °C

More lines, main results first:

IC90 STA 25923 [1]: 12.7 µg/mL (≈ 25.2 µM)
IC90 BSU 43639 [2]: 2.5 µg/mL (≈ 4.95 µM)
IC90 SMU 33402 [4]: 12.7 µg/mL (≈ 25.2 µM)
IC90 LMO 49594 [5]: 10.1 µg/mL (≈ 20 µM)
IC90 PAE 27853 [6]: 12.7 µg/mL (≈ 25.2 µM)
IC90 SPN 6305 [7]: 1.1 µg/mL (≈ 2.18 µM)
IC90 SPY 8668 [8]: 10.1 µg/mL (≈ 20 µM)
IC90 STA 29213 [9]: 12.7 µg/mL (≈ 25.2 µM)
IC90 EFA 29212 [10]: 12.7 µg/mL (≈ 25.2 µM)
SMILES: COc1ccc2nc(OC)c(C(c3ccccc3)C3(c4cccc5ccccc45)CCN(C)CO3)cc2c1 (single isomer, unassigned) [Compound 10]
IC90 STA RMETHIC [3]: 50.5 µg/mL (≈ 100 µM)

IC90 STA 25923 [1]: 48.9 µg/mL (≈ 100 µM)
IC90 BSU 43639 [2]: 48.9 µg/mL (≈ 100 µM)
IC90 SMU 33402 [4]: 48.9 µg/mL (≈ 100 µM)
IC90 LMO 49594 [5]: 48.9 µg/mL (≈ 100 µM)
IC90 PAE 27853 [6]: 48.9 µg/mL (≈ 100 µM)
IC90 SPN 6305 [7]: 4.9 µg/mL (≈ 10 µM)
IC90 SPY 8668 [8]: 19.5 µg/mL (≈ 39.9 µM)
IC90 STA 29213 [9]: 48.9 µg/mL (≈ 100 µM)
IC90 EFA 29212 [10]: 48.9 µg/mL (≈ 100 µM)
SMILES: COc1nc2ccc(C)cc2cc1C(c1ccccc1)C1(c2cccc3ccccc23)CCN(C)CO1 (single isomer, unassigned) [Compound 11]
IC90 STA RMETHIC [3]: 48.9 µg/mL (≈ 100 µM)

IC90 STA 25923 [1]: 13.6 µg/mL (≈ 25.2 µM)
IC90 ([4]; Streptococcus mutans, ATCC33402, 90% inhibitory concentration for bacterial growth, read-out: IC90 SMU 33402): 10.8 µg/mL (≈ 20 µM)
IC90 ([5]; Listeria monocytogenes, ATCC49594, 90% inhibitory concentration for bacterial growth, read-out: IC90 LMO 49594): 13.6 µg/mL (≈ 25.2 µM)
IC90 PAE 27853 [6]: 13.6 µg/mL (≈ 25.2 µM)
IC90 SPN 6305 [7]: 12.1 µg/mL (≈ 22.4 µM)
IC90 SPY 8668 [8]: 10.8 µg/mL (≈ 20 µM)
IC90 STA 29213 [9]: 13.6 µg/mL (≈ 25.2 µM)
IC90 EFA 29212 [10]: 13.6 µg/mL (≈ 25.2 µM)
SMILES: COc1nc2ccc(-c3ccco3)cc2cc1C(c1ccccc1)C1(c2cccc3ccccc23)CCN(C)CO1 (single isomer, unassigned) [Compound 12]
IC90 STA RMETHIC [3]: 13.6 µg/mL (≈ 25.2 µM)

IC90 [6]: 14.8 µg/mL (≈ 25.2 µM)
IC90 [7]: 13.2 µg/mL (≈ 22.5 µM)
IC90 [8]: 14.8 µg/mL (≈ 25.2 µM)
IC90 [9]: 14.8 µg/mL (≈ 25.2 µM)
IC90 [10]: 14.8 µg/mL (≈ 25.2 µM)
SMILES: COc1nc2ccc(Br)cc2cc1C(c1ccc(Cl)cc1)C1(c2cccc3ccccc23)CCN(C)CO1 (single isomer, unassigned) [Compound 13]

IC90 PAE 27853 [6]: 14.8 µg/mL (≈ 25.2 µM)
IC90 SPN 6305 [7]: 14.8 µg/mL (≈ 25.2 µM)
IC90 SPY 8668 [8]: 14.8 µg/mL (≈ 25.2 µM)
IC90 STA 29213 [9]: 14.8 µg/mL (≈ 25.2 µM)
IC90 EFA 29212 [10]: 14.8 µg/mL (≈ 25.2 µM)
melting point: 201 °C
SMILES: COc1nc2ccc(Br)cc2cc1C(c1ccc(Cl)cc1)C1(c2cccc3ccccc23)CCN(C)CO1 (single isomer, unassigned) [Compound 21]
